Our source for the IC50 values is patent US12336981B2, “Compounds and compositions for the inhibition of NAMPT” (Valo Health, Inc., priority 2010, dated 2025).

One assay relates to A2780 cells. Briefly: In-vitro cell proliferation assay (SRB), A2780 cells. It is filed as cell-based. To be noted: Homo sapiens, A2780, 72 h, A2780 cells, 72 hours, read-out: A2780 IC50. A digest of the protocol: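 Growth inhibition was derived from background-corrected SRB absorbance (570 nm), measured on cells fixed in 6% TCA after three days of compound treatment under 5% CO2 at 37° C.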

The target of another assay is T1, NAMPT (Homo sapiens, UniProt P43490).
T1 construct: His tag; host or cells: E. coli
T1 sequence (P43490 whole entry): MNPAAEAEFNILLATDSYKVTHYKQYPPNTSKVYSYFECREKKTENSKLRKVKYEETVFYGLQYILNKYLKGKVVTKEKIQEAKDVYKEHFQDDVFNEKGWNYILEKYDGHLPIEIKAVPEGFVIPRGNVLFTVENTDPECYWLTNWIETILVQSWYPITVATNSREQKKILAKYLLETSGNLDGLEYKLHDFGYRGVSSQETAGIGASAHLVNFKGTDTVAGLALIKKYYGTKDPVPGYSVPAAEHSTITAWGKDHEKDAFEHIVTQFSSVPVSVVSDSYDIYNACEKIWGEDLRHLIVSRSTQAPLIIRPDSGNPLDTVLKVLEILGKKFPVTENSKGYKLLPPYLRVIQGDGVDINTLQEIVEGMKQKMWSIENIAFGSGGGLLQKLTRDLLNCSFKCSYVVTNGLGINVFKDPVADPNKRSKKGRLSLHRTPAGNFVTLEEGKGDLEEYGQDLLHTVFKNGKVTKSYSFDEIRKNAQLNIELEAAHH
The assay is described as follows: Biochemical inhibition assay: NAMPT enzymatic reaction, NMN quantified by mass spectrometry. To be noted: read-out: Biochem IC50. A digest of the protocol: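 Inhibition of E. coli-expressed His-tagged human NAMPT, measured as NMN formation by mass spectrometry after a 30 min room-temperature reaction containing 1 μM NAM, 100 μM PRPP and 2.5 mM ATP.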

As a reminder, the IC50 is the concentration at which inhibition is half-maximal.

Read-outs that look alike come from different tables or passages of the source.

In the case of `O=C(NCc1ccc(S(=O)(=O)c2ccc(F)c(F)c2)cc1)c1cc2ccncc2o1`, the values for the concentration for half-maximal inhibition (IC50) with A2780 cells (SRB) and on NAMPT (NAMPT enzymatic reaction) were 13 nM and 16.8 nM, respectively.
Consider `Cc1cccc(S(=O)(=O)c2ccc(CNC(=O)c3cc4cnccc4[nH]3)cc2)c1` [N-({4-[(3-methylbenzene)sulfonyl]phenyl}methyl)-1H-pyrrolo[3,2-c]pyridine-2-carboxamide], for which the half-maximal inhibitory concentration (IC50) stood at 4 nM with A2780 cells (SRB assay) and 9 nM on NAMPT (NAMPT enzymatic reaction).
`Cc1cc(-n2cccn2)ccc1S(=O)(=O)c1ccc(CNC(=O)c2cnc3[nH]ncc3c2)cc1`: the 50% inhibitory concentration (IC50) in the assay on A2780 cells (SRB) came to 23.5 nM; on NAMPT (NAMPT enzymatic assay), 27.1 nM.
Consider `COc1ccc(F)cc1NS(=O)(=O)c1ccc(CNC(=O)c2ccc3ncccc3c2)cc1` [N-({4-[(5-fluoro-2-methoxyphenyl)sulfamoyl]phenyl}methyl)quinoline-6-carboxamide], for which the 50% inhibitory concentration (IC50) was 1000 to 10000 nM with A2780 cells (SRB) and 66 nM at NAMPT (NAMPT enzymatic assay).
Regarding `O=C(NC1CCCC1)c1cccc(S(=O)(=O)c2ccc(CNC(=O)c3cc4ccncc4s3)cc2)c1`, the 50% inhibitory concentration (IC50) was found to be 13.8 nM in the assay with A2780 cells (SRB) and 4.8 nM at NAMPT (NAMPT enzymatic assay).
Regarding `Cc1ccc(S(=O)(=O)c2ccc(CNC(=O)c3cc4ccncc4s3)cc2)cc1Cl`, the half-inhibitory concentration (IC50) with A2780 cells (SRB) is 1 nM; at NAMPT (NAMPT enzymatic reaction), 5.1 nM.
For `O=C(NCc1ccc(S(=O)(=O)c2c(Cl)cccc2Cl)cc1)c1cc2ccncc2o1`, the 50% inhibitory concentration (IC50) worked out at 60.1 nM in the assay with A2780 cells (SRB) and 12.4 nM at NAMPT (NAMPT enzymatic reaction).
With `O=C(NCc1ccc(S(=O)(=O)c2cccc(F)c2)cc1)c1cnc2nccn2c1`, the values for the concentration for half-maximal inhibition (IC50) in the assay with A2780 cells (SRB) and on NAMPT (NAMPT enzymatic reaction) were 22.1 nM and 1.9 nM, respectively.
As to `COc1ccc(S(=O)(=O)c2ccc(CNC(=O)c3cnc4nccn4c3)cc2)c(C(F)(F)F)c1`, the results for the IC50 in the assay on A2780 cells (SRB) and on NAMPT (NAMPT enzymatic assay) were 65.7 nM and 7 nM, respectively.
Turning to `O=C(NCc1ccc(S(=O)(=O)c2ccc(Cl)c(C(F)(F)F)c2)cc1)c1cc2ccncc2o1`, the half-maximal inhibitory concentration (IC50) was determined as 6.9 nM in the assay on A2780 cells (SRB) and 6 nM on NAMPT (NAMPT enzymatic assay).
For `O=C(NCc1ccc(S(=O)(=O)c2cccc(N3CCOCC3)c2)cc1)c1cc2ccncc2o1` the same measures were 5.6 nM and 5 nM.
Take `CN(C)Cc1ccc(S(=O)(=O)c2ccc(CNC(=O)c3cnc4nccn4c3)cc2)cc1`: the values for the IC50 in the assay on A2780 cells (SRB) and at NAMPT (NAMPT enzymatic assay) were 24.6 nM and 3.3 nM, respectively.
Take `CC(NC(=O)c1cc2cnccc2[nH]1)c1ccc(S(=O)(=O)N2CCCCC2)cc1` (stereo not shown) [N-{1-[4-(piperidine-1-sulfonyl)phenyl]ethyl}-1H-pyrrolo[3,2-c]pyridine-2-carboxamide]: the IC50 in the assay on A2780 cells (SRB assay) is 7 nM; at NAMPT (NAMPT enzymatic reaction), 20 nM.
Consider `CCS(=O)(=O)c1cccc(S(=O)(=O)c2ccc(CNC(=O)c3ccc4nccn4c3)cc2)c1`, for which the IC50 in the assay with A2780 cells (SRB) came to 6 nM; at NAMPT (NAMPT enzymatic assay), 13.5 nM.
For `O=C(NCc1ccc(S(=O)(=O)c2ccccc2CN2CCOCC2)cc1)c1ccc2nccn2c1` [N-[(4-{[2-(morpholin-4-ylmethyl)benzene]sulfonyl}phenyl)methyl]imidazo[1,2-a]pyridine-6-carboxamide] the same measures were 34.2 nM and 136 nM.
For `O=C(NCc1ccc(S(=O)(=O)c2ccc(-n3cccn3)c(F)c2)cc1)c1ccc2nccn2c1` [N-[(4-{[3-fluoro-4-(1H-pyrazol-1-yl)benzene]sulfonyl}phenyl)methyl]imidazo[1,2-a]pyridine-6-carboxamide] the same measures were 3.41 nM and 5.37 nM.
As to `Cc1ccc(Cl)c(S(=O)(=O)c2ccc(CNC(=O)c3cc4cnccc4[nH]3)cc2)c1`, the IC50 in the assay on A2780 cells (SRB) was determined as 9.1 nM; on NAMPT (NAMPT enzymatic reaction) it was 18.8 nM.
On to `Cc1cc(C)n(-c2cccc(S(=O)(=O)c3ccc(CNC(=O)c4cc5ccncc5o4)cc3)c2)n1`, for which the IC50 in the assay on A2780 cells (SRB) worked out at 3.5 nM; at NAMPT (NAMPT enzymatic assay), 7.1 nM.
With `O=C(NCc1ccc(S(=O)(=O)c2cc(F)cc(OCC(F)(F)F)c2)cc1)c1cc2ccncc2s1` [N-[(4-{[3-fluoro-5-(2,2,2-trifluoroethoxy)benzene]sulfonyl}phenyl)methyl]thieno[2,3-c]pyridine-2-carboxamide], the IC50 in the assay on A2780 cells (SRB) worked out at 3.5 nM; at NAMPT (NAMPT enzymatic assay), 2.9 nM.
Take `CN(C)C(=O)c1ccc(S(=O)(=O)c2ccc(CNC(=O)c3cc4cnccc4[nH]3)cc2)cc1` [N-[(4-{[4-(dimethylcarbamoyl)benzene]sulfonyl}phenyl)methyl]-1H-pyrrolo[3,2-c]pyridine-2-carboxamide]: the half-inhibitory concentration (IC50) with A2780 cells (SRB assay) came to 14 nM; at NAMPT (NAMPT enzymatic reaction) it was 27 nM.
For the compound `Cc1cc(S(=O)(=O)c2ccc(CNC(=O)c3ccc4nccn4c3)cc2)ccc1F` [N-({4-[(4-fluoro-3-methylbenzene)sulfonyl]phenyl}methyl)imidazo[1,2-a]pyridine-6-carboxamide], the results for the concentration for half-maximal inhibition (IC50) with A2780 cells (SRB) and at NAMPT (NAMPT enzymatic reaction) were 7.14 nM and 23.5 nM, respectively.
Take `CCCOc1ccc(S(=O)(=O)c2ccc(CNC(=O)c3cc4cnccc4[nH]3)cc2)c(C)c1`: the 50% inhibitory concentration (IC50) in the assay with A2780 cells (SRB) was 22.1 nM; at NAMPT (NAMPT enzymatic reaction), 30.5 nM.
Turning to `COc1ccc(S(=O)(=O)c2ccc(CNC(=O)c3ccc4nccn4c3)cc2)nc1` [N-{[4-(5-methoxypyridine-2-sulfonyl)phenyl]methyl}imidazo[1,2-a]pyridine-6-carboxamide], the concentration for half-maximal inhibition (IC50) came to 17.3 nM in the assay with A2780 cells (SRB) and 22.9 nM at NAMPT (NAMPT enzymatic assay).
Consider `CC(C)COc1cccc(S(=O)(=O)c2ccc(CNC(=O)c3ccc4nccn4c3)cc2)c1`, for which the IC50 in the assay with A2780 cells (SRB) turned out to be 10.6 nM; on NAMPT (NAMPT enzymatic assay), 15.7 nM.
For `CSc1ccc(S(=O)(=O)c2ccc(CNC(=O)c3cc4ccncc4o3)cc2)cc1F` the same measures were 11.2 nM and 12.3 nM.
Consider `COc1cc(Cl)cc(S(=O)(=O)c2ccc(CNC(=O)c3cc4ccncc4s3)cc2)c1`, for which the IC50 in the assay with A2780 cells (SRB) was found to be 1.1 nM; at NAMPT (NAMPT enzymatic reaction) it was 4.1 nM.
`O=C(NCc1ccc(S(=O)(=O)c2ccc(C(F)(F)F)c(Cl)c2)cc1)c1cc2ccncc2s1`: the IC50 in the assay with A2780 cells (SRB) amounted to 2.3 nM; on NAMPT (NAMPT enzymatic assay) it was 3 nM.
For the compound `CCOc1ccc(S(=O)(=O)c2ccc(CNC(=O)c3cc4ccncc4s3)cc2)cc1`, the IC50 in the assay with A2780 cells (SRB) turned out to be 4 nM; at NAMPT (NAMPT enzymatic reaction), 2.1 nM.
Turning to `O=C(NCc1ccc(S(=O)(=O)c2ccc(C(F)(F)F)cc2)cc1)c1cnc2nccn2c1`, the 50% inhibitory concentration (IC50) in the assay on A2780 cells (SRB) was found to be 23.5 nM; on NAMPT (NAMPT enzymatic assay) it was 6 nM.
Regarding `Cc1cc(S(=O)(=O)c2ccc(CNC(=O)c3cnc4nccn4c3)cc2)c(C)cc1F`, the 50% inhibitory concentration (IC50) in the assay with A2780 cells (SRB) was found to be 29.4 nM; at NAMPT (NAMPT enzymatic reaction) it was 5.8 nM.
For `O=C(NCc1ccc(S(=O)(=O)c2cccc(Oc3ccc(F)cc3)c2)cc1)c1ccc2nccn2c1`, the half-inhibitory concentration (IC50) in the assay on A2780 cells (SRB) was determined as 34 nM; on NAMPT (NAMPT enzymatic assay), 15.1 nM.
For the compound `CCOc1cc(F)ccc1S(=O)(=O)c1ccc(CNC(=O)c2cc3ccncc3o2)cc1`, the IC50 in the assay on A2780 cells (SRB) came out at 6.9 nM; on NAMPT (NAMPT enzymatic reaction), 7.7 nM.
In the case of `Cc1cn(C)c(S(=O)(=O)c2ccc(CNC(=O)c3cc4ccncc4o3)cc2)n1` [N-{[4-(1,4-dimethyl-1H-imidazole-2-sulfonyl)phenyl]methyl}furo[2,3-c]pyridine-2-carboxamide], the concentration for half-maximal inhibition (IC50) in the assay with A2780 cells (SRB) is 100 to 1000 nM; on NAMPT (NAMPT enzymatic assay) it was 60.7 nM.
Take `CCCCOc1ccc(S(=O)(=O)c2ccc(CNC(=O)c3cnc4[nH]ncc4c3)cc2)c(C)c1` [N-({4-[(4-butoxy-2-methylbenzene)sulfonyl]phenyl}methyl)-1H-pyrazolo[3,4-b]pyridine-5-carboxamide]: the IC50 came out at 68.8 nM with A2780 cells (SRB) and 70.9 nM on NAMPT (NAMPT enzymatic reaction).
Take `O=C(NCc1ccc(S(=O)(=O)c2cccc(OC(F)(F)F)c2F)cc1)c1cc2ccncc2s1`: the concentration for half-maximal inhibition (IC50) came to 13.3 nM with A2780 cells (SRB) and 9.8 nM on NAMPT (NAMPT enzymatic assay).
